From the NIST ThermoML archive (doi:10.1007/s10765-008-0549-z)

Conditions: Liquid, Hot wire method

Cc1ccccc1 [toluene]
Conditions	thermal conductivity [W/m/K]
274.65 K	0.1387
275.4 K	0.1382
275.95 K	0.1384
276.31 K	0.138
287.33 K	0.1345
288.72 K	0.1336
289.65 K	0.1335
294.45 K	0.1318
294.69 K	0.1318
295.08 K	0.1321
295.47 K	0.1314
295.79 K	0.132
297.45 K	0.1318
298.6 K	0.1313
300.43 K	0.1303
307.66 K	0.1287
308.62 K	0.1283
310.22 K	0.1274
314.69 K	0.1261
314.74 K	0.1264
315.55 K	0.1253
315.85 K	0.1254
316.7 K	0.1251
317.94 K	0.1251
319.32 K	0.1245
319.96 K	0.1245
327.65 K	0.1225
329.5 K	0.1214
330.77 K	0.1209
338.39 K	0.1188
339.77 K	0.1181
340.62 K	0.1181
355.63 K	0.114
355.95 K	0.114
357.02 K	0.1137
375.26 K	0.1086
375.71 K	0.1087

COCCOC [1,2-dimethoxyethane]
Conditions	thermal conductivity [W/m/K]
245.46 K, 104.6 kPa	0.1648
245.69 K, 30045 kPa	0.1742
245.95 K, 9806.6 kPa	0.1669
245.96 K, 30103 kPa	0.1746
246.06 K, 5008.2 kPa	0.1665
246.06 K, 20070 kPa	0.1711
246.24 K, 20007 kPa	0.1706
246.49 K, 105.9 kPa	0.165
246.52 K, 5028.5 kPa	0.1666
246.69 K, 10018 kPa	0.1683
246.75 K, 10005 kPa	0.1682
246.79 K, 5010 kPa	0.1662
247.52 K, 103.3 kPa	0.1647
255.91 K, 20016 kPa	0.1675
256.02 K, 102.5 kPa	0.1606
256.02 K, 30007 kPa	0.1706
256.1 K, 10040 kPa	0.1643
256.21 K, 5070.2 kPa	0.1623
256.75 K, 30014 kPa	0.1707
256.81 K, 20002 kPa	0.1679
256.83 K, 10040 kPa	0.1642
256.9 K, 5065.5 kPa	0.1625
256.95 K, 102.5 kPa	0.161
257.48 K, 5064.5 kPa	0.1625
257.56 K, 20022 kPa	0.1674
257.58 K, 102.3 kPa	0.1607
257.62 K, 10048 kPa	0.1643
257.66 K, 30002 kPa	0.1708
266.15 K, 10003 kPa	0.1617
266.18 K, 5017.9 kPa	0.1601
266.19 K, 30009 kPa	0.1688
266.26 K, 101.3 kPa	0.158
266.26 K, 20003 kPa	0.1654
266.32 K, 10011 kPa	0.1618
266.41 K, 100.9 kPa	0.158
266.58 K, 5037.6 kPa	0.1598
266.87 K, 20013 kPa	0.165
266.95 K, 30000 kPa	0.1684
267.11 K, 30013 kPa	0.1683
267.35 K, 20003 kPa	0.1653
267.37 K, 10021 kPa	0.1617
267.5 K, 101.1 kPa	0.1578
267.84 K, 5027 kPa	0.1598
275.68 K, 10024 kPa	0.1585
275.72 K, 5003.3 kPa	0.1567
276.21 K, 20024 kPa	0.1624
276.34 K, 101.8 kPa	0.1547
276.45 K, 30012 kPa	0.1657
276.49 K, 100.9 kPa	0.1543
276.52 K, 20015 kPa	0.1623
276.94 K, 5006 kPa	0.1567
277.11 K, 30008 kPa	0.1654
277.29 K, 10005 kPa	0.1584
277.31 K, 30012 kPa	0.1653
277.53 K, 20015 kPa	0.1623
277.55 K, 5005.5 kPa	0.1565
277.95 K, 10000 kPa	0.1585
278.62 K, 101.1 kPa	0.1539
285.8 K, 10010 kPa	0.1551
286.18 K, 5012.4 kPa	0.1531
286.23 K, 101.5 kPa	0.1512
286.4 K, 30001 kPa	0.1626
286.51 K, 20013 kPa	0.159
286.67 K, 30009 kPa	0.1625
286.8 K, 20011 kPa	0.159
287.06 K, 101.3 kPa	0.1509
287.07 K, 30006 kPa	0.1621
287.28 K, 10001 kPa	0.1549
287.46 K, 5010.5 kPa	0.153
287.68 K, 20035 kPa	0.1586
288.14 K, 10002 kPa	0.1545
288.62 K, 100.9 kPa	0.1504
288.65 K, 5009.1 kPa	0.1525
294.52 K, 10026 kPa	0.1516
294.53 K, 20008 kPa	0.1566
294.55 K, 30012 kPa	0.1589
294.64 K, 10027 kPa	0.1527
294.68 K, 106.8 kPa	0.1466
294.68 K, 20036 kPa	0.1566
294.75 K, 104.2 kPa	0.1463
294.83 K, 5021.1 kPa	0.15
294.85 K, 10037 kPa	0.1514
294.89 K, 30004 kPa	0.1609
294.98 K, 5020.1 kPa	0.1495
295 K, 30018 kPa	0.1595
295.07 K, 5014 kPa	0.149
295.11 K, 20026 kPa	0.1557
295.24 K, 20010 kPa	0.1569
295.28 K, 30016 kPa	0.1598
295.32 K, 30006 kPa	0.16
295.36 K, 101.9 kPa	0.1467
295.36 K, 20006 kPa	0.1558
295.37 K, 10024 kPa	0.1515
295.38 K, 104.3 kPa	0.1474
295.83 K, 10044 kPa	0.1522
296 K, 5027.1 kPa	0.1498
314.6 K, 104.5 kPa	0.1394
314.65 K, 105.6 kPa	0.1386
314.79 K, 30008 kPa	0.1522
314.83 K, 20003 kPa	0.1491
314.84 K, 5010.3 kPa	0.1415
314.87 K, 10003 kPa	0.1443
314.9 K, 107.1 kPa	0.1402
314.95 K, 20016 kPa	0.1476
315.06 K, 10017 kPa	0.144
315.14 K, 30010 kPa	0.1529
315.17 K, 10013 kPa	0.1447
315.23 K, 5018.6 kPa	0.1424
315.26 K, 30008 kPa	0.1519
315.27 K, 105.4 kPa	0.1395
315.3 K, 20008 kPa	0.1484
315.31 K, 20001 kPa	0.1483
315.42 K, 10012 kPa	0.1445
315.46 K, 5010.3 kPa	0.1419
315.51 K, 100.6 kPa	0.1391
334.53 K, 10006 kPa	0.1361
334.58 K, 102.1 kPa	0.132
334.58 K, 5005.9 kPa	0.1342
334.65 K, 5011.8 kPa	0.1347
334.69 K, 90 kPa	0.132
334.76 K, 10004 kPa	0.1366
334.94 K, 10015 kPa	0.1373
334.98 K, 5008.9 kPa	0.1344
335.06 K, 101.6 kPa	0.1322
335.31 K, 10008 kPa	0.1374
335.39 K, 5011.5 kPa	0.1347
335.53 K, 105.6 kPa	0.1314
335.59 K, 10015 kPa	0.1366
335.96 K, 5018 kPa	0.1343
336.14 K, 105.6 kPa	0.1319
